# Values quoted from earlier work in patent US6821974B2, “Stable pharmaceutical compositions” (Barbeau Pharma, Inc, priority 2002, dated 2004).
# Read-outs that look alike come from different tables or passages of the source.
# Key:
# [1] = 20 mg/ml sterile injection solutions
structure (smiles),measurement,setting,value
"NNc1nncc2ccccc12 [Hydralazine, 1-hydrazinophthalazine]",storage time after which submicron particles appear,[1],6-12 months
same,onset of action,given intravenously,10 to 20 min
same,duration of action,in vivo,3 to 4 h
same,maximum hypotensive effect,in vivo,10 to 80 min
same,onset of action,in vivo,10 to 30 min
